# Measured values as given in ChEMBL document CHEMBL3217526, “Bioguided discovery and pharmacophore modeling of the mycotoxic indole diterpene alkaloids penitrems as breast cancer proliferation, migration, and invasion inhibitors” (Medchemcomm, 2013).
# Assays:
# Caenorhabditis elegans [1] = assay: Toxicity in L1 stage Caenorhabditis elegans N2 assessed as viability and reproduction at 10 uM; type: organism-based; details: in vivo
# Caenorhabditis elegans [2] = assay: Toxicity in L1 stage Caenorhabditis elegans N2 assessed as viability and reproduction at 50 uM; type: organism-based; details: in vivo
# Caenorhabditis elegans [3] = assay: In vivo inhibition of BK channel in L1 stage Caenorhabditis elegans N2 assessed as increase in reversals at 1 uM; type: organism-based
# MDA-MB-231 [4] = assay: Antiinvasive activity against human MDA-MB-231 cells assessed as inhibition of cell invasion at 15 uM after 24 hrs by BME Cell invasion assay kit; type: functional; details: MDA-MB-231, 24 h
# [5] = Cytotoxicity against human UACC257 cells assessed as growth inhibition at 10 uM; type: functional; details: UACC-257, read-out: GI
# NCI-H522 = assay: Cytotoxicity against human NCI-H522 cells assessed as growth inhibition at 10 uM; type: functional; details: read-out: GI
# ACHN = assay: Cytotoxicity against human ACHN cells assessed as growth inhibition at 10 uM; type: functional; details: read-out: GI
# NCI-H226 = assay: Cytotoxicity against human NCI-H226 cells assessed as growth inhibition at 10 uM; type: functional; details: read-out: GI
# HT-29 = assay: Cytotoxicity against human HT-29 cells assessed as growth inhibition at 10 uM; type: functional; details: read-out: GI
# HCC 2998 = assay: Cytotoxicity against human HCC2998 cells assessed as growth inhibition at 10 uM; type: functional; details: read-out: GI
# MDA-MB-231 [6] = assay: Cytotoxicity against human MDA-MB-231 cells assessed as growth inhibition at 10 uM; type: functional; details: read-out: GI
# U-251 = assay: Cytotoxicity against human U251 cells assessed as growth inhibition at 10 uM; type: functional; details: read-out: GI
# [7] = Cytotoxicity against human UACC62 cells assessed as growth inhibition at 10 uM; type: functional; details: UACC-62, read-out: GI
# [8] = Cytotoxicity against human OVCAR3 cells assessed as growth inhibition at 10 uM; type: functional; details: OVCAR-3, read-out: GI
# SF-268 = assay: Cytotoxicity against human SF268 cells assessed as growth inhibition at 10 uM; type: functional; details: read-out: GI
# SNB-19 = assay: Cytotoxicity against human SNB19 cells assessed as growth inhibition at 10 uM; type: functional; details: read-out: GI
# SN12C = assay: Cytotoxicity against human SN12C cells assessed as growth inhibition at 10 uM; type: functional; details: read-out: GI
# MOLT-4 = assay: Cytotoxicity against human MOLT4 cells assessed as growth inhibition at 10 uM; type: functional; details: read-out: GI
# BT-549 = assay: Cytotoxicity against human BT549 cells assessed as growth inhibition at 10 uM; type: functional; details: read-out: GI
# LOX IMVI = assay: Cytotoxicity against human LOXIMVI cells assessed as growth inhibition at 10 uM; type: functional; details: read-out: GI
# SNB-75 = assay: Cytotoxicity against human SNB75 cells assessed as growth inhibition at 10 uM; type: functional; details: read-out: GI
# HOP-62 = assay: Cytotoxicity against human HOP62 cells assessed as growth inhibition at 10 uM; type: functional; details: read-out: GI
# RXF 393 = assay: Cytotoxicity against human RXF393 cells assessed as growth inhibition at 10 uM; type: functional; details: read-out: GI
# NCI-H460 = assay: Cytotoxicity against human NCI-H460 cells assessed as growth inhibition at 10 uM; type: functional; details: read-out: GI
# [9] = Cytotoxicity against human NCI-ADR-RES cells assessed as growth inhibition at 10 uM; type: functional; details: read-out: GI
# PC-3 = assay: Cytotoxicity against human PC3 cells assessed as growth inhibition at 10 uM; type: functional; details: read-out: GI
# IGROV-1 = assay: Cytotoxicity against human IGROV1 cells assessed as growth inhibition at 10 uM; type: functional; details: read-out: GI
# MCF7 = assay: Antiproliferative activity against human MCF7 cells after 72 hrs by MTT assay; type: functional, cell-based; details: MCF7, 72 h
# Malme-3M = assay: Cytotoxicity against human MALME-3M cells assessed as growth inhibition at 10 uM; type: functional; details: read-out: GI
# [10] = Cytotoxicity against human Hs578T cells assessed as growth inhibition at 10 uM; type: functional; details: Hs-578T, read-out: GI
# CCRF-CEM = assay: Cytotoxicity against human CCRF-CEM cells assessed as growth inhibition at 10 uM; type: functional; details: read-out: GI
# KM12 = assay: Cytotoxicity against human KM12 cells assessed as growth inhibition at 10 uM; type: functional; details: read-out: GI
# SW-620 = assay: Cytotoxicity against human SW620 cells assessed as growth inhibition at 10 uM; type: functional; details: read-out: GI
# TK-10 = assay: Cytotoxicity against human TK10 cells assessed as growth inhibition at 10 uM; type: functional; details: read-out: GI
# [11] = Cytotoxicity against human UO31 cells assessed as growth inhibition at 10 uM; type: functional; details: UO-31, read-out: GI
# COLO 205 = assay: Cytotoxicity against human COLO205 cells assessed as growth inhibition at 10 uM; type: functional; details: read-out: GI
# [12] = Cytotoxicity against human EKVX cells assessed as growth inhibition at 10 uM; type: functional; details: read-out: GI
# SK-MEL-2 = assay: Cytotoxicity against human SK-MEL-2 cells assessed as growth inhibition at 10 uM; type: functional; details: read-out: GI
# NCI-H322M = assay: Cytotoxicity against human NCI-H322M cells assessed as growth inhibition at 10 uM; type: functional; details: read-out: GI
# SK-MEL-5 = assay: Cytotoxicity against human SK-MEL-5 cells assessed as growth inhibition at 10 uM; type: functional; details: read-out: GI
# RPMI-8226 = assay: Cytotoxicity against human RPMI8226 cells assessed as growth inhibition at 10 uM; type: functional; details: read-out: GI
# T47D = assay: Cytotoxicity against human T47D cells assessed as growth inhibition at 10 uM; type: functional; details: read-out: GI
# MDA-MB-468 = assay: Cytotoxicity against human MDA-MB-468 cells assessed as growth inhibition at 10 uM; type: functional; details: read-out: GI
# DU-145 = assay: Cytotoxicity against human DU145 cells assessed as growth inhibition at 10 uM; type: functional; details: read-out: GI
# MDA-MB-435 = assay: Cytotoxicity against human MDA-MB-435 cells assessed as growth inhibition at 10 uM; type: functional; details: read-out: GI
# [13] = Cytotoxicity against human HCT15 cells assessed as growth inhibition at 10 uM; type: functional; details: HCT-15, read-out: GI
# MDA-MB-231 [14] = assay: Antimigratory activity in human MDA-MB-231 cells after 24 hrs by wound healing assay; type: functional, cell-based; details: MDA-MB-231, 24 h
# M14 = assay: Cytotoxicity against human M14 cells assessed as growth inhibition at 10 uM; type: functional; details: read-out: GI
# [15] = Cytotoxicity against human OVCAR8 cells assessed as growth inhibition at 10 uM; type: functional; details: OVCAR-8, read-out: GI
# SK-OV-3 = assay: Cytotoxicity against human SKOV3 cells assessed as growth inhibition at 10 uM; type: functional; details: read-out: GI
# SF-539 = assay: Cytotoxicity against human SF539 cells assessed as growth inhibition at 10 uM; type: functional; details: read-out: GI
# SR = assay: Cytotoxicity against human SR cells assessed as growth inhibition at 10 uM; type: functional; details: read-out: GI
# SK-MEL-28 = assay: Cytotoxicity against human SK-MEL-28 cells assessed as growth inhibition at 10 uM; type: functional; details: read-out: GI
# A549 = assay: Cytotoxicity against human A549 cells assessed as growth inhibition at 10 uM; type: functional; details: read-out: GI
# [16] = Cytotoxicity against human OVCAR5 cells assessed as growth inhibition at 10 uM; type: functional; details: OVCAR-5, read-out: GI
# K562 = assay: Cytotoxicity against human K562 cells assessed as growth inhibition at 10 uM; type: functional; details: read-out: GI
# HCT-116 = assay: Cytotoxicity against human HCT116 cells assessed as growth inhibition at 10 uM; type: functional; details: read-out: GI
# HL-60(TB) = assay: Cytotoxicity against human HL-60(TB) cells assessed as growth inhibition at 10 uM; type: functional; details: read-out: GI
# NCI-H23 = assay: Cytotoxicity against human NCI-H23 cells assessed as growth inhibition at 10 uM; type: functional; details: read-out: GI
# [17] = Cytotoxicity against human OVCAR4 cells assessed as growth inhibition at 10 uM; type: functional; details: OVCAR-4, read-out: GI
# MDA-MB-231 [18] = assay: Antiproliferative activity against human MDA-MB-231 cells after 72 hrs by MTT assay; type: functional, cell-based; details: MDA-MB-231, 72 h
# 786-0 = assay: Cytotoxicity against human 786-0 cells assessed as growth inhibition at 10 uM; type: functional; details: read-out: GI
smiles,measurement,setting,value
C=C(C)[C@H]1O[C@H]2CC[C@@]3(C)[C@@](O)(CC[C@H]4[C@@H]5OC(C)(C)[C@H]6C[C@@H]7C(=C)Cc8c(Cl)cc9[nH]c(c5c9c8[C@@]76O)[C@@]43C)[C@]23O[C@@H]3[C@H]1O [PENITREM A],Activity,Caenorhabditis elegans [1],Non-toxic
same,Activity,Caenorhabditis elegans [2],Non-toxic
same,Activity,Caenorhabditis elegans [3],Toxic
C=C1Cc2ccc3[nH]c4c5c3c2[C@H]2[C@@H]1C[C@@H]2C(C)(C)O[C@H]5[C@@H]1CC[C@@]2(O)[C@@]35O[C@@H]3[C@@H](O)[C@@H](C(=C)C)O[C@H]5CC[C@]2(C)[C@@]41C [PENITREM B],inhibition at 15 µM,MDA-MB-231 [4],40%
same,Activity,Caenorhabditis elegans [1],Non-toxic
same,inhibition of growth at 10 µM,[5],44.7%
same,inhibition of growth at 10 µM,NCI-H522,78.5%
same,inhibition of growth at 10 µM,ACHN,59.3%
same,inhibition of growth at 10 µM,NCI-H226,82.3%
same,inhibition of growth at 10 µM,HT-29,38.4%
same,inhibition of growth at 10 µM,HCC 2998,107%
same,inhibition of growth at 10 µM,MDA-MB-231 [6],77.8%
same,inhibition of growth at 10 µM,U-251,66.3%
same,inhibition of growth at 10 µM,[7],76.8%
same,inhibition of growth at 10 µM,[8],48.8%
same,inhibition of growth at 10 µM,SF-268,49.2%
same,inhibition of growth at 10 µM,SNB-19,71.8%
same,inhibition of growth at 10 µM,SN12C,38.6%
same,inhibition of growth at 10 µM,MOLT-4,36.4%
same,inhibition of growth at 10 µM,BT-549,63.7%
same,inhibition of growth at 10 µM,LOX IMVI,39.5%
same,inhibition of growth at 10 µM,SNB-75,68.2%
same,inhibition of growth at 10 µM,HOP-62,94%
same,inhibition of growth at 10 µM,RXF 393,70.3%
same,inhibition of growth at 10 µM,NCI-H460,50.6%
same,inhibition of growth at 10 µM,[9],56.7%
same,inhibition of growth at 10 µM,PC-3,27.8%
same,inhibition of growth at 10 µM,IGROV-1,54.9%
same,IC50,MCF7,5.5 µM
same,inhibition of growth at 10 µM,Malme-3M,67.4%
same,inhibition of growth at 10 µM,[10],42.4%
same,inhibition of growth at 10 µM,CCRF-CEM,21.3%
same,Activity,Caenorhabditis elegans [2],Non-toxic
same,inhibition of growth at 10 µM,KM12,40.9%
same,inhibition of growth at 10 µM,SW-620,64.1%
same,inhibition of growth at 10 µM,TK-10,84%
same,inhibition of growth at 10 µM,[11],11.5%
same,inhibition of growth at 10 µM,COLO 205,76.5%
same,inhibition of growth at 10 µM,[12],63%
same,inhibition of growth at 10 µM,SK-MEL-2,87.8%
same,inhibition of growth at 10 µM,NCI-H322M,48.2%
same,inhibition of growth at 10 µM,SK-MEL-5,61.1%
same,inhibition of growth at 10 µM,RPMI-8226,20.4%
same,inhibition of growth at 10 µM,T47D,64.5%
same,inhibition of growth at 10 µM,MDA-MB-468,60.7%
same,inhibition of growth at 10 µM,DU-145,64.4%
same,inhibition of growth at 10 µM,MDA-MB-435,33.9%
same,inhibition of growth at 10 µM,[13],74.3%
same,IC50,MDA-MB-231 [14],10.3 µM
same,inhibition of growth at 10 µM,M14,34.5%
same,inhibition of growth at 10 µM,[15],71.4%
same,inhibition of growth at 10 µM,SK-OV-3,90.3%
same,inhibition of growth at 10 µM,SF-539,89.8%
same,inhibition of growth at 10 µM,SR,45.9%
same,inhibition of growth at 10 µM,SK-MEL-28,94.1%
same,inhibition of growth at 10 µM,A549,43.1%
same,inhibition of growth at 10 µM,[16],102%
same,inhibition of growth at 10 µM,K562,19.9%
same,inhibition of growth at 10 µM,HCT-116,25.3%
same,inhibition of growth at 10 µM,HL-60(TB),29%
same,inhibition of growth at 10 µM,NCI-H23,73.2%
same,inhibition of growth at 10 µM,[17],66.3%
same,IC50,MDA-MB-231 [18],13.7 µM
same,inhibition of growth at 10 µM,786-0,70.3%
